# Laboratory results published in patent US11412733B2, “Method for enhancing plant disease controlling effects of isofetamid and method for controlling plant diseases” (ISHIHARA SANGYO KAISHA, LTD., priority 2016, dated 2022).
# Columns and labels:
# Type in all cases: in vivo
# Corynespora cassiicora [1] = experiment: Test Example 7: residual effect against cucumber leaf spot; details: isofetamid 200 ppm + product 0.05 wt %, four-leaf stage, 1,000 L/ha; inoculation after 7 days
# Protocol: Cucumber (cultivar: […] After the chemical solution dried, the cucumber was cultivated in a greenhouse for 7 days, and the cucumber was sprayed and inoculated with a suspension of conidia of Corynespora cassiicora, and kept under humidified chamber conditions at 23° C. for 24 hours. Thereafter, the cucumber was cultivated in a room at 20° C. under illumination for 7 days. The lesion area ratio on the first leaf was examined, and the control value was calculated based on the following formula. The obtained results are shown in Table 7. […] a: lesion area ratio in treated plot, b: lesion area ratio in non-treated plot
# Sphaerotheca fulidinea [2] = experiment: Test Example 4: rainfastness against cucumber powdery mildew; details: isofetamid 200 ppm + product 0.05 wt %, 1,000 L/ha; after 2 days rainfall 40 mm per hour for one hour, then adaxial inoculation
# Protocol: Cucumber (cultivar: […] After the chemical solution dried, the cucumber was cultivated in a greenhouse for 2 days, and rainfall treatment (rainfall intensity: 40 mm per hour) was carried out by means of an artificial rainfall apparatus for one hour, and after drying, the leaf adaxial surface was sprayed and inoculated with a suspension of conidia of Sphaerotheca fulidinea, and the cucumber was cultivated in a room at 20° C. under illumination for 7 days. The lesion area ratio on the adaxial surface of the first leaf was examined, and the control value was calculated based on the following formula. […] a: lesion area ratio in treated plot, b: lesion area ratio in non-treated plot
# Corynesbora cassiicora [3] = experiment: Test Example 2: penetration effect against cucumber leaf spot; details: isofetamid 400 ppm + product 0.05 wt %, leaf adaxial surface, 1,000 L/ha; abaxial inoculation after 4 days; examined 7 days after inoculation
# From the text: Cucumber (cultivar: Natsusuzumi) was cultivated in a polyethylene pot having a diameter of 7.5 cm, and when the cucumber reached 1.5-leaf stage, an isofetamid 400 ppm solution prepared by adding an aqueous solution (0.05 wt %) of each of products containing the component (b) as identified in Table 2 to isofetamid, was applied to the leaf adaxial surface by means of a spray gun in an amount corresponding to 1,000 L/ha. The cucumber was cultivated in a greenhouse for 4 days, and the leaf abaxial surface was sprayed and inoculated with a suspension of conidia of Corynesbora cassiicora, and the cucumber was kept under humidified chamber conditions at 23° C. for 24 hours. Thereafter, the cucumber was kept in a thermostatic chamber at 20° C., and 7 days after the inoculation, the lesion area ratio on the first leaf was examined, and the control value was calculated based on the following formula. Control value=(1−a/b)×100
# Corynespora cassiicora [4] = experiment: Test Example 5: penetration effect against cucumber leaf spot with different surfactant concentrations; details: isofetamid 200 ppm without component (b); abaxial inoculation after 3 days
# Protocol: Cucumber (cultivar: […] The cucumber was cultivated in a greenhouse for 3 days, and the leaf abaxial side was sprayed and inoculated with a suspension of conidia of Corynespora cassiicora, and the cucumber was kept under humidified chamber conditions at 23° C. for 24 hours. […] a: lesion area ratio in treated plot, b: lesion area ratio in non-treated plot
# Sphaerotheca fulidinea [5] = experiment: Test Example 1: penetration effect against cucumber powdery mildew; details: isofetamid 400 ppm + product 0.05 wt %, leaf adaxial surface, 1,000 L/ha, abaxial inoculation after 4 days, No addition = without component (b)
# Protocol: Cucumber (cultivar: Sagamihanjiro Fushinari) was cultivated in a polyethylene pot having a diameter of 7.5 cm, and when the cucumber reached 1.5-leaf stage, an isofetamid 400 ppm solution prepared by adding an aqueous solution (0.05 wt %) of each of products containing the component (b) as identified in Tables 1-1 to 1-6 to isofetamid, was applied to the leaf adaxial surface by means of a spray gun in an amount of 1,000 L/ha (20 ml/0.2 m^2). After the chemical solution dried, the cucumber was cultivated in a greenhouse for 4 days, the leaf abaxial surface was sprayed and inoculated with a suspension of conidia of Sphaerotheca fulidinea, and the cucumber was cultivated in a room at 22° C. under illumination for 7 to 8 days. The lesion area ratio on the abaxial surface of the first leaf was examined, and the control value was calculated based on the following formula. In Tables, “no addition” means the above treatment without adding the component (b) (the same applies hereinafter). Control value=(1−a/b)×100
# (§1) a: lesion area ratio in treated plot, b: lesion area ratio in non-treated plot
# Sphaerotheca fulidinea [6] = experiment: Test Example 6: penetration effect against cucumber powdery mildew; details: isofetamid 400 ppm + product 0.025 wt %, leaf adaxial surface, 1,000 L/ha; abaxial inoculation after 4 days
# From the text: Cucumber (cultivar: Sagamihanjiro Fushinari) was cultivated in a polyethylene pot having a diameter of 7.5 cm, and when the cucumber reached 1.5-leaf stage, an isofetamid 400 ppm solution prepared by adding an aqueous solution (0.025 wt %) of each of products containing the component (b) as identified in Table 6 to isofetamid was applied to the leaf adaxial surface by means of a spray gun in an amount corresponding to 1,000 L/ha. The cucumber was cultivated in a greenhouse for 4 days, and then the leaf abaxial side was sprayed and inoculated with a suspension of conidia of Sphaerotheca fulidinea, and the cucumber was cultivated in a room at 22° C. under illumination for 7 days. The lesion area ratio on the abaxial side of the first leaf was examined, and the control value was calculated based on the following formula. Control value=(1−a/b)×100
# as §1
# Corynesbora cassiicora [7] = experiment: Test Example 3: curative effect against cucumber leaf spot; details: inoculated 24 hours before treatment; isofetamid 400 ppm + product 0.05 wt %, 1,000 L/ha; examined 7 days after inoculation
# From the text: Cucumber (cultivar: […] The leaf was air-dried, and an isofetamid 400 ppm solution prepared by adding an aqueous solution (0.05 wt %) of each of products containing the component (b) as identified in Table 3 to isofetamid, was applied by means of a spray gun in an amount corresponding to 1,000 L/ha. […] a: lesion area ratio in treated plot, b: lesion area ratio in non-treated plot
smiles,measurement,setting,value
"Cc1cc(OC(C)C)ccc1C(=O)C(C)(C)NC(=O)c1sccc1C [No addition, isofetamid]",Control value,Corynespora cassiicora [1],80
same,Control value,Sphaerotheca fulidinea [2],62
same,Control value,Corynesbora cassiicora [3],68
same,Control value,Corynespora cassiicora [4],66.7
same,Control value,Sphaerotheca fulidinea [5]; Table 1-1,0
same,Control value,Sphaerotheca fulidinea [5]; Table 1-2,6
same,Control value,Sphaerotheca fulidinea [5]; Table 1-3,4
same,Control value,Sphaerotheca fulidinea [5]; Table 1-4,11
same,Control value,Sphaerotheca fulidinea [5]; Table 1-5,14
same,Control value,Sphaerotheca fulidinea [5]; Table 1-6,68
same,Control value,Sphaerotheca fulidinea [6],54.6
same,Control value,Corynesbora cassiicora [7],0
